From US20110136762A1, “FUNGICIDAL PYRIDAZINES” (E.I. Du Pont de Nemours and Company, priority 2008, published 2011)
Marks after values point to notes of the source that are not given here.

Columns and labels:
Assay type in all cases: in vivo
[1] = test system: Alternaria solani; assay: Test E: tomato early blight, preventive spray on tomato seedlings, visual disease rating; details: 100 = 100% disease control, 0 = no disease control relative to controls; for pest or weed control at 200 ppm: Alternaria solani
From the text: General protocol for preparing test suspensions for Tests A-F: […] The resulting test suspensions were then used in Tests A-F. The test suspensions were sprayed to the point of run-off on the test plants. All results are for 200 ppm (equivalent to a rate of 500 g/ha) except where followed by “*” which indicates 40 ppm. The test suspension was sprayed to the point of run-off on tomato seedlings. […] A dash (-) indicates no test results. All results are for 200 ppm except where followed by “*”, which indicates 40 ppm.

[2] = test system: Septoria nodorum; assay: Test D: wheat glume blotch, preventive spray on wheat seedlings, visual disease rating; details: 100 = 100% disease control, 0 = no disease control relative to controls; for pest or weed control at 200 ppm: Parastagonospora nodorum
From the text: General protocol for preparing test suspensions for Tests A-F: […] The resulting test suspensions were then used in Tests A-F. The test suspensions were sprayed to the point of run-off on the test plants. All results are for 200 ppm (equivalent to a rate of 500 g/ha) except where followed by “*” which indicates 40 ppm. The test suspension was sprayed to the point of run-off on wheat seedlings. The following day the seedlings were inoculated with a spore suspension of Septoria nodorum (the causal agent of wheat glume blotch) and incubated in a saturated atmosphere at 20° C. for 48 h, and then moved to a growth chamber at 20° C. for 7 days, after which time visual disease ratings were made. […] A dash (-) indicates no test results. All results are for 200 ppm except where followed by “*”, which indicates 40 ppm.

[3] = test system: Erysiphe graminis; assay: Test A: wheat powdery mildew, preventive spray on wheat seedlings, visual disease rating; details: 100 = 100% disease control, 0 = no disease control relative to controls; for pest or weed control at 200 ppm: Blumeria graminis, 192 h
From the text: General protocol for preparing test suspensions for Tests A-F: […] The resulting test suspensions were then used in Tests A-F. The test suspensions were sprayed to the point of run-off on the test plants. All results are for 200 ppm (equivalent to a rate of 500 g/ha) except where followed by “*” which indicates 40 ppm. The test suspension was sprayed to the point of run-off on wheat seedlings. The following day the seedlings were inoculated with a spore dust of Erysiphe graminis, (the causal agent of wheat powdery mildew) and incubated in a growth chamber at 20° C. for 8 days, after which time visual disease ratings were made. […] A dash (-) indicates no test results. All results are for 200 ppm except where followed by “*”, which indicates 40 ppm.

[4] = test system: Puccinia recondita f. sp. tritici; assay: Test B: wheat leaf rust, preventive spray on wheat seedlings, visual disease rating; details: 100 = 100% disease control, 0 = no disease control relative to controls; for pest or weed control at 200 ppm: 192 h
From the text: General protocol for preparing test suspensions for Tests A-F: […] The resulting test suspensions were then used in Tests A-F. The test suspensions were sprayed to the point of run-off on the test plants. All results are for 200 ppm (equivalent to a rate of 500 g/ha) except where followed by “*” which indicates 40 ppm. The test suspension was sprayed to the point of run-off on wheat seedlings. The following day the seedlings were inoculated with a spore suspension of Puccinia recondita f. sp. tritici (the causal agent of wheat leaf rust) and incubated in a saturated atmosphere at 20° C. for 24 h, and then moved to a growth chamber at 20° C. for 7 days, after which time visual disease ratings were made. […] A dash (-) indicates no test results. All results are for 200 ppm except where followed by “*”, which indicates 40 ppm.

[5] = test system: Botrytis cinerea; assay: Test F: tomato Botrytis, preventive spray on tomato seedlings, visual disease rating; details: 100 = 100% disease control, 0 = no disease control relative to controls; for pest or weed control at 200 ppm: Botrytis cinerea
From the text: General protocol for preparing test suspensions for Tests A-F: […] The resulting test suspensions were then used in Tests A-F. The test suspensions were sprayed to the point of run-off on the test plants. All results are for 200 ppm (equivalent to a rate of 500 g/ha) except where followed by “*” which indicates 40 ppm. The test suspension was sprayed to the point of run-off on tomato seedlings. The following day the seedlings were inoculated with a spore suspension of Botrytis cinerea (the causal agent of tomato Botrytis) and incubated in saturated atmosphere at 20° C. for 48 h, and then moved to a growth chamber at 24° C. for 3 days, after which time visual disease ratings were made. […] A dash (-) indicates no test results. All results are for 200 ppm except where followed by “*”, which indicates 40 ppm.

[6] = test system: Septoria tritici; assay: Test C: wheat leaf blotch, preventive spray on wheat seedlings, visual disease rating; details: 100 = 100% disease control, 0 = no disease control relative to controls; for pest or weed control at 200 ppm: Zymoseptoria tritici, 504 h
From the text: General protocol for preparing test suspensions for Tests A-F: […] The resulting test suspensions were then used in Tests A-F. The test suspensions were sprayed to the point of run-off on the test plants. All results are for 200 ppm (equivalent to a rate of 500 g/ha) except where followed by “*” which indicates 40 ppm. The test suspension was sprayed to the point of run-off on wheat seedlings. The following day the seedlings were inoculated with a spore suspension of Septoria tritici (the causal agent of wheat leaf blotch) and incubated in saturated atmosphere at 20° C. for 48 h, and moved to a growth chamber at 20° C. for 19 additional days, after which time visual disease ratings were made. […] A dash (-) indicates no test results. All results are for 200 ppm except where followed by “*”, which indicates 40 ppm.

SMILES | pest or weed control at 200 ppm ([1]; 200 ppm) | pest or weed control at 200 ppm ([2]; 200 ppm) | pest or weed control at 200 ppm ([3]; 200 ppm) | pest or weed control at 200 ppm ([4]; 200 ppm) | pest or weed control at 200 ppm ([5]; 200 ppm) | pest or weed control at 200 ppm ([6]; 200 ppm) | Test E rating (disease control, tomato early blight) ([1]; 200 ppm) | Test D rating (disease control, wheat glume blotch) ([2]; 200 ppm) | Test A rating (disease control, wheat powdery mildew) ([3]; 200 ppm) | Test B rating (disease control, wheat leaf rust) ([4]; 200 ppm) | Test F rating (disease control, tomato Botrytis) ([5]; 200 ppm) | Test C rating (disease control, wheat leaf blotch) ([6]; 200 ppm) | also measured
COc1cc(OC)cc(-c2c(-c3ccccc3F)nnc(Cl)c2-c2ccc(F)cc2F)c1 [Compound 18, 3-chloro-4-(2,4-difluorophenyl)-5-(3,5-dimethoxyphenyl)-6-(2-fluorophenyl)pyridazine] | 100% | 100% | 95% | 100% | 95% | 98% | – | – | – | – | – | – | –
C=C(C)c1nnc(C)c(-c2ccc(OC)cc2)c1-c1cc(OC)cc(OC)c1 [Compound 19] | – | – | – | – | – | – | 100% | 0% | 61% | 98% | 98% | 98% | –
C=C(C)c1nnc(C)c(-c2ccc(F)cc2F)c1-c1cc(OC)cc(OC)c1 [Compound 20] | – | – | – | – | – | – | 100% | 0% | 96% | 100% | 99% | 96% | –
C=C(C)c1nnc(C)c(-c2c(F)cccc2F)c1-c1cc(OC)cc(OC)c1 [Compound 21] | – | – | – | – | – | – | – | – | – | – | – | – | Test E rating (disease control, tomato early blight) ([1]; 40 ppm (marked *)): 98* %; Test D rating (disease control, wheat glume blotch) ([2]; 40 ppm (marked *)): 0* %; Test A rating (disease control, wheat powdery mildew) ([3]; 40 ppm (marked *)): 94* %; Test B rating (disease control, wheat leaf rust) ([4]; 40 ppm (marked *)): 99* %; Test F rating (disease control, tomato Botrytis) ([5]; 40 ppm (marked *)): 98* %; Test C rating (disease control, wheat leaf blotch) ([6]; 40 ppm (marked *)): 98* %
COc1cc(OC)cc(-c2c(-c3ccccc3F)nnc(C)c2-c2c(F)cccc2F)c1 [Compound 22] | – | – | – | – | – | – | – | – | – | – | – | – | Test E rating (disease control, tomato early blight) ([1]; 40 ppm (marked *)): 100* %; Test D rating (disease control, wheat glume blotch) ([2]; 40 ppm (marked *)): 84* %; Test A rating (disease control, wheat powdery mildew) ([3]; 40 ppm (marked *)): 99* %; Test B rating (disease control, wheat leaf rust) ([4]; 40 ppm (marked *)): 100* %; Test F rating (disease control, tomato Botrytis) ([5]; 40 ppm (marked *)): 95* %; Test C rating (disease control, wheat leaf blotch) ([6]; 40 ppm (marked *)): 97* %
Cc1nnc(-c2ccccc2F)c(-c2ccc(Cl)cc2)c1-c1c(F)cc(F)cc1F [Compound 23] | – | – | – | – | – | – | 96% | 0% | 99% | 99% | 86% | 97% | –
COc1cc(OC)cc(-c2c(-c3ccccc3F)nnc(C)c2-c2c(F)cc(F)cc2F)c1 [Compound 24, 4-(3,5-dimethoxyphenyl)-3-(2-fluorophenyl)-6-methyl-5-(2,4,6-trifluorophenyl)pyridazine] | 100% | 100% | 100% | 100% | 94% | 96% | – | – | – | – | – | – | –
Cc1nnc(-c2ccccc2F)c(-c2cccc(F)c2)c1-c1c(F)cc(F)cc1F [Compound 25, 3-(2-fluorophenyl)-4-(3-fluorophenyl)-6-methyl-5-(2,4,6-trifluorophenyl)pyridazine] | 100% | 100% | 99% | 100% | 98% | 96% | – | – | – | – | – | – | –
COc1cc(OC)cc(-c2c(-c3ccccc3F)nnc(OC)c2-c2c(F)cc(F)cc2F)c1 [Compound 26, 4-(3,5-dimethoxyphenyl)-3-(2-fluorophenyl)-6-methoxy-5-(2,4,6-trifluorophenyl)pyridazine] | 95% | 100% | 90% | 100% | 99% | 99% | – | – | – | – | – | – | –
